Patent US11033547B2, “Carboxamide-pyrimidine derivatives as SHP2 antagonists” (Merck Patent GmbH, priority 2019, dated 2021)
Like-named read-outs stand apart in the source and are kept apart here.

What was measured:
[1] = molecular target: Full length SHP2 protein (Recombinant Human SHP-2) (Homo sapiens, UniProt Q06124); test: SHP2 biochemical assay (DiFMUP substrate, activating peptide IRSI_2pY); settings: DiFMUP substrate, activating peptide IRSI_2pY, 60 min at RT; read-out: SHP-2 Biochemical assay IC50
Procedure: The inhibition of SHP2 by compounds of the invention was monitored using the surrogate substrate DiFMUP after protein activation by a peptide bearing two appropriately spaced phosphotyrosine. […] The generation of the DiFMU product by activated SHP2 was monitored through Fluorescence measurement with a PerkinElmer Envision reader.
The inhibitor dose response curves were analyzed with Genedata Screener.

[2] = test system: pERK level in MDA-MB-468 cells; test: p-Erk cellular assay in MDA-MB-468 (Mesoscale); assay type: cell-based; settings: 2 h incubation, read-out: pERK1/2 in MDA-MB-468 IC50
Procedure: (§1) p-Erk Cellular Assay in MDA-MB-468 and KYSE520:
(§2) The effect of SHP2 inhibitors on pERK level was assessed using phospho-specific antibody using Mesoscale quantification platform. For measuring change in pERK levels using mesoscale, 30,000 cells of MDA MB468 and KYSE520 cells were plated in 96-well tissue culture treated plate in 175 ul volume of media. After an overnight incubation at 37° C., various SHP2 inhibitors were added in different concentration to each well maintaining duplicate wells across plates and incubated with compounds for 2 h at 37° C. followed by a wash with ice cold PBS buffer. The cells were then lysed in lysis buffer and processed and analyzed for p-ERK/ERK as per manufacturer's instructions (Mesoscale discovery, cat No. K15107D-3).

[3] = test system: pERK level in KYSE520 cells; test: p-Erk cellular assay in KYSE520 (Mesoscale); assay type: cell-based; settings: 2 h incubation, read-out: pERK1/2 in KYSE520 IC50
Procedure: as §1, §2

[4] = Pharmacokinetics in female CD1 mice (oral / intravenous); assay type: in vivo; settings: mouse PK; for clearance / Vd: female, CD1, plasma, intravenous; for Vd: read-out: Vd ss
Procedure: Female CD1 mice (N=3) received a single oral (gavage) or a single intravenous (bolus) injection of compound. […] Consecutive blood samples were taken sub-lingually under isofluorane inhalation from animals after 0.083 (IV), 0.25, 0.5, 1, 2, 4, 6 and 24 h and were further processed to obtain plasma. Samples were protein precipitated and analyzed by LC/MS/MS.

Full length SHP2 protein (Recombinant Human SHP-2), sequence (Q06124 2-593 limits assumed): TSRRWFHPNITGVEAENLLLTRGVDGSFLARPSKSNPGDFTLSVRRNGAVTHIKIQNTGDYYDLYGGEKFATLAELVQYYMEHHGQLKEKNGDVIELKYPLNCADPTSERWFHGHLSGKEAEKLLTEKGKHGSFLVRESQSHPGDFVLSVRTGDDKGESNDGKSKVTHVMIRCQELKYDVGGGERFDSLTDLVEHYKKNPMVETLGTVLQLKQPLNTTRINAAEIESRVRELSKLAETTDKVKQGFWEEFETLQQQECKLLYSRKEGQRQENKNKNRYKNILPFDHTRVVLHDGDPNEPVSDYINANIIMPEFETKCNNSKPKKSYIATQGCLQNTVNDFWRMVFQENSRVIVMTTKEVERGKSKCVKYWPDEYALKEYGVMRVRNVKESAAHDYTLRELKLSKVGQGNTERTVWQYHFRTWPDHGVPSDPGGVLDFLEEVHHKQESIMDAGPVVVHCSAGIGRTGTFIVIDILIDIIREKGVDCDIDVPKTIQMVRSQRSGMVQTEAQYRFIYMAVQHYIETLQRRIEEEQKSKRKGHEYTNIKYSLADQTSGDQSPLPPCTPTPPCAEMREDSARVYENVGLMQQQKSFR

IC50 [1] [nM] | IC50 [2] [nM] | IC50 [3] [nM] | IC50 ([2]; Homo sapiens, MDA-MB-468, 2 h) [nM] | IC50 ([3]; Homo sapiens, KYSE-520, 2 h) [nM] | Structure (SMILES) | clearance [4] [mL/min/kg] | Vd [4] [L/kg] | Clearance as compared to SHP-099 (in words) [4] | Exposure as compared to SHP-099 (in words) [4]
49 | – | – | 395 | 1200 | NC[C@@]12CCC[C@@H]1CN(c1nc(N)c(-c3cccc(Cl)c3Cl)c(C(N)=O)n1)C2 (atropisomer, axis not shown; (P)) [Compound 98, (5P)-2-[(3aR,6aS)-3a-(aminomethyl)octahydrocyclopenta[c]pyrrol-2-yl]-6-amino-5-(2,3-dichlorophenyl)pyrimidine-4-carboxamide] | – | – | – | –
71 | – | – | 420 | 468 | C[C@@]1(N)CCCN(c2nc(N)c(-c3cccc(Cl)c3Cl)c(C(N)=O)n2)CC1 (atropisomer, axis not shown; (P)) [Compound 109, (5P)-6-amino-2-[(4R)-4-amino-4-methylazepan-1-yl]-5-(2,3-dichlorophenyl)-pyrimidine-4-carboxamide] | – | – | – | –
82 | – | – | 342 | 1470 | CC1(N)CCN(c2nc(N)c(-c3cccc(Cl)c3Cl)c(C(N)=O)n2)CC1 (single isomer, unassigned) [Compound 27, (4P)-6-Amino-2-(4-amino-4-methyl-piperidin-1-yl)-5-(2,3-dichloro-phenyl)-pyrimidine-4-carboxylic Acid Amide] | 37.3 | 8.7 | lower clearance | higher exposure
120 | – | – | 606 | 1370 | NC(=O)c1nc(N2CCC3(CCC[C@H]3N)CC2)nc(N)c1-c1cccc(Cl)c1Cl [Compound 7, 6-amino-2-[(1R)-1-amino-8-azaspiro[4.5]decan-8-yl]-5-(2,3-dichlorophenyl)pyrimidine-4-carboxamide] | – | – | – | –
260 | – | – | 1170 | 7700 | NC(=O)c1nc(N2CCC(N)(CO)CC2)nc(N)c1-c1cccc(Cl)c1Cl [Compound 29, 6-amino-2-[4-amino-4-(hydroxymethyl)piperidin-1-yl]-5-(2,3-dichlorophenyl)-pyrimidine-4-carboxamide] | – | – | – | –
310 | – | – | 908 | 2990 | CC1(CN)CCN(c2nc(N)c(-c3cccc(Cl)c3Cl)c(C(N)=O)n2)CC1 [Compound 41, 6-amino-2-[4-(aminomethyl)-4-methylpiperidin-1-yl]-5-(2,3-dichlorophenyl)pyrimidine-4-carboxamide] | – | – | – | –
120 | – | – | 683 | 2540 | NC(=O)c1nc(N2CCCC(N)CC2)nc(N)c1-c1cccc(Cl)c1Cl (centres unmarked) [Compound 49, 6-amino-2-(4-aminoazepan-1-yl)-5-(2,3-dichlorophenyl)-pyrimidine-4-carboxamide] | – | – | – | –
200 | – | – | 652 | 1300 | CCCC1(N)CCN(c2nc(N)c(-c3cccc(Cl)c3Cl)c(C(N)=O)n2)CC1 [Compound 53, 6-amino-2-(4-amino-4-propylpiperidin-1-yl)-5-(2,3-dichloro-phenyl)pyrimidine-4-carboxamide] | – | – | – | –

The remaining lines, values behind:

Structure (SMILES) | IC50 [1] [nM] | IC50 [2] [nM] | IC50 [3] [nM] | IC50 ([2]; Homo sapiens, MDA-MB-468, 2 h) [nM] | IC50 ([3]; Homo sapiens, KYSE-520, 2 h) [nM] | clearance [4] [mL/min/kg] | Vd [4] [L/kg] | Clearance as compared to SHP-099 (in words) [4] | Exposure as compared to SHP-099 (in words) [4]
CC1(N)CCN(c2nc(Cl)c(-c3cccc(Cl)c3Cl)c(C(N)=O)n2)CC1 (atropisomer, axis not shown; (P)) [Compound 79, (4P)-2-(4-amino-4-methylpiperidin-1-yl)-6-chloro-5-(2,3-dichlorophenyl)-pyrimidine-4-carboxamide] | 30 | 177 | 837 | – | – | – | – | – | –
Cc1nc(N2CCC3(CC2)CO[C@@H](C)[C@H]3N)nc(C(N)=O)c1-c1cccc(Cl)c1Cl (single isomer, unassigned) [Compound 95] | 22 | – | – | 497 | 486 | 12.8 | 3.99 | lower clearance | higher exposure
NC[C@]12CCCC[C@H]1CN(c1nc(N)c(-c3cccc(Cl)c3Cl)c(C(N)=O)n1)C2 (single isomer, unassigned) [Compound 101] | 75 | – | – | 445 | 390 | – | – | – | –
Cc1nc(N2CCC3(CCC[C@H]3N)CC2)nc(C(N)=O)c1-c1cccc(Cl)c1Cl (single isomer, unassigned) [Compound 114] | 45 | – | – | 316 | 284 | – | – | – | –
NC(=O)c1nc(N2CCC3(CC2)CC(F)(F)C[C@H]3N)nc(N)c1-c1cccc(Cl)c1Cl [Compound 8, 6-amino-2-[(1R)-1-amino-3,3-difluoro-8-azaspiro[4.5]decan-8-yl]-5-(2,3-dichlorophenyl)pyrimidine-4-carboxamide] | 200 | – | – | 2180 | 1510 | – | – | – | –
CNC(=O)c1nc(N2CCC(C)(N)CC2)nc(N)c1-c1cccc(Cl)c1Cl [Compound 9, 6-Amino-2-(4-amino-4-methyl-piperidin-1-yl)-5-(2,3-dichlorophenyl)-pyrimidine-4-carboxylic Acid Methylamide] | 1100 | – | – | 1500 | 6440 | – | – | – | –
NCC1CN(c2nc(N)c(-c3cccc(Cl)c3Cl)c(C(N)=O)n2)CC12CCC2 (centres unmarked) [Compound 11, 6-amino-2-[8-(aminomethyl)-6-azaspiro[3.4]octan-6-yl]-5-(2,3-dichlorophenyl)pyrimidine-4-carboxamide] | 590 | – | – | 1830 | 10200 | – | – | – | –
Cc1nc(N2CCC(C)(N)CC2)nc(C(N)=O)c1-c1cccc(Cl)c1Cl [Compound 18, 2-(4-Amino-4-methyl-piperidin-1-yl)-5-(2,3-dichloro-phenyl)-6-methyl-pyrimidine-4-carboxylic Acid Amide] | 104 | 231 | – | – | 2400 | – | – | – | –
CC1(N)CCN(c2nc(N)c(-c3cccc(Cl)c3Cl)c(C(=O)NO)n2)CC1 [Compound 20, 6-Amino-2-(4-amino-4-methyl-piperidin-1-yl)-5-(2,3-dichlorophenyl)-pyrimidine-4-carboxylic Acid Hydroxyamide] | 150 | – | – | 492 | 8450 | – | – | – | –
NCC12CCCCC1CN(c1nc(N)c(-c3cccc(Cl)c3Cl)c(C(N)=O)n1)C2 (centres unmarked) [Compound 24, 2-[3a-(aminomethyl)-octahydro-1H-isoindol-2-yl]-6-amino-5-(2,3-dichlorophenyl)pyrimidine-4-carboxamide] | 270 | – | – | 2350 | 7650 | – | – | – | –
Cc1nc(NC2CCCC(N)C2)nc(C(N)=O)c1-c1cccc(Cl)c1Cl (centres unmarked) [Compound 28, 2-(3-Amino-cyclohexyl-amino)-5-(2,3-dichloro-phenyl)-6-methyl-pyrimidine-4-carboxylic acid amide] | 360 | – | – | 1630 | 11500 | – | – | – | –
Cc1nc(N(C)C2CCC(N)CC2)nc(C(N)=O)c1-c1cccc(Cl)c1Cl (centres unmarked) [Compound 32, 2-[(4-Amino-cyclohexyl)-methyl-amino]-5-(2,3-dichlorophenyl)-6-methyl-pyrimidine-4-carboxylic acid amide] | 200 | – | – | 736 | 3610 | – | – | – | –
Cc1nc(N2CCCC(C)(N)CC2)nc(C(N)=O)c1-c1cccc(Cl)c1Cl (centres unmarked) [Compound 45, 2-(4-Amino-4-methyl-azepan-1-yl)-5-(2,3-dichloro-phenyl)-6-methyl-pyrimidine-4-carboxylic acid amide] | 170 | – | – | 646 | 2100 | – | – | – | –
Cc1nc(N2CCC(C)(N)CC2)nc(C(N)=O)c1-c1ccnc(Cl)c1Cl [Compound 81, 2-(4-Amino-4-methyl-piperidin-1-yl)-5-(2,3-dichloro-pyridin-4-yl)-6-methyl-pyrimidine-4-carboxylic acid amide] | 720 | – | – | 1720 | 11300 | – | – | – | –
Cc1nc(N2CCC3(CC2)CO[C@@H](C)[C@H]3N)nc(C(N)=O)c1-c1cccc(Cl)c1Cl [Compound 85, 2-[(3S,4S)-4-amino-3-methyl-2-oxa-8-azaspiro[4.5]decan-8-yl]-5-(2,3-dichlorophenyl)-6-methylpyrimidine-4-carboxamide] | 48 | – | – | 407 | 1240 | – | – | – | –
CN(c1nc(N)c(-c2cccc(Cl)c2Cl)c(C(N)=O)n1)[C@H]1CC[C@H](N)CC1 [Compound 112, 6-Amino-2-[(4-amino-cyclohexyl)-methyl-amino]-5-(2,3-dichloro-phenyl)-pyrimidine-4-carboxylic acid amide] | 66 | – | – | 670 | 596 | – | – | – | –
